In PubChem BioAssay (NCI):
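All cell lines were grown in 96-well plates and treated with compound for 48 hours. GI50 = concentration required for 50% inhibition of growth. TGI: total growth inhibition.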

Key:
Experiment in all cases: DTP human tumour cell line panel, 48 h
[1] = test system: 786-0 renal
[2] = test system: A498 renal
[3] = test system: A549 NSCLC
[4] = test system: ACHN renal
[5] = test system: BT-549 breast
[6] = test system: CAKI-1 renal
[7] = test system: CCRF-CEM leukemia
[8] = test system: COLO 205 colon
[9] = test system: DU-145 prostate
[10] = test system: EKVX NSCLC
[11] = test system: HCC-2998 colon
[12] = test system: HCT-116 colon
[13] = test system: HCT-15 colon
[14] = test system: HL-60(TB) leukemia
[15] = test system: HOP-62 NSCLC
[16] = test system: HOP-92 NSCLC
[17] = test system: HS 578T breast
[18] = test system: HT29 colon
[19] = test system: IGROV1 ovarian
[20] = test system: K-562 leukemia
[21] = test system: KM12 colon
[22] = test system: LOX IMVI melanoma
[23] = test system: M14 melanoma
[24] = test system: MALME-3M melanoma
[25] = test system: MCF7 breast
[26] = test system: MDA-MB-231 breast
[27] = test system: MDA-MB-435
[28] = test system: MDA-MB-468 breast
[29] = test system: MOLT-4 leukemia
[30] = test system: NCI-H226 lung
[31] = test system: NCI-H23 lung
[32] = test system: NCI-H460 lung
[33] = test system: NCI-H522 lung
[34] = test system: NCI/ADR-RES ovarian
[35] = test system: OVCAR-3 ovarian
[36] = test system: OVCAR-4 ovarian
[37] = test system: OVCAR-5 ovarian
[38] = test system: OVCAR-8 ovarian
[39] = test system: PC-3 prostate
[40] = test system: RXF 393 renal
[41] = test system: SF-268 CNS
[42] = test system: SF-295 CNS
[43] = test system: SF-539 CNS
[44] = test system: SK-MEL-2 melanoma
[45] = test system: SK-MEL-28 melanoma
[46] = test system: SK-MEL-5 melanoma
[47] = test system: SK-OV-3 ovarian
[48] = test system: SN12C renal
[49] = test system: SNB-19 CNS
[50] = test system: SNB-75 CNS
[51] = test system: SR leukemia
[52] = test system: SW-620 colon
[53] = test system: T-47D breast
[54] = test system: TK-10 renal
[55] = test system: U251 CNS
[56] = test system: UACC-257 melanoma
[57] = test system: UACC-62 melanoma
[58] = test system: UO-31 renal

## CCCn1c(=O)c2[nH]c(-c3ccc(OCc4nc5ccccc5[nH]4)cc3)nc2n(CCC)c1=O
[1]
  GI50: 2.83 µM
  TGI: 10.6 µM
[2]
  GI50: 14.3 µM
  TGI: 32.3 µM
[3]
  GI50: 5.92 µM
  TGI: > 100 µM
[4]
  GI50: 5 µM
  TGI: 24.9 µM
[5]
  GI50: 8.41 µM
  TGI: 45.5 µM
[6]
  GI50: 2.95 µM
  TGI: 11.9 µM
[7]
  GI50: > 100 µM
  TGI: > 100 µM
[8]
  GI50: > 100 µM
  TGI: > 100 µM
[9]
  TGI: > 100 µM
[10]
  GI50: 23.5 µM
  TGI: > 100 µM
[11]
  GI50: 11.9 µM
  TGI: > 100 µM
[12]
  GI50: 3.94 µM
  TGI: > 100 µM
[13]
  GI50: 31.9 µM
  TGI: > 100 µM
[14]
  GI50: > 100 µM
  TGI: > 100 µM
[15]
  GI50: 8.39 µM
  TGI: 24.3 µM
[16]
  GI50: 5.18 µM
  TGI: 25.3 µM
[17]
  GI50: 2.3 µM
  TGI: 7.76 µM
[18]
  GI50: 13.2 µM
  TGI: > 100 µM
[19]
  GI50: 15.3 µM
  TGI: 42.8 µM
[20]
  GI50: > 100 µM
  TGI: > 100 µM
[21]
  GI50: > 100 µM
  TGI: > 100 µM
[22]
  GI50: 3.47 µM
  TGI: 14.7 µM
[23]
  GI50: 26.2 µM
  TGI: > 100 µM
[24]
  GI50: 3.43 µM
  TGI: 16.4 µM
[25]
  GI50: 3.32 µM
  TGI: 18.6 µM
[26]
  GI50: 3.37 µM
  TGI: 12.6 µM
[27]
  GI50: 13 µM
  TGI: > 100 µM
[28]
  GI50: 3.13 µM
  TGI: 16.1 µM
[29]
  GI50: > 100 µM
  TGI: > 100 µM
[30]
  GI50: 2.4 µM
  TGI: 7.25 µM
[31]
  GI50: 5.95 µM
  TGI: 18.1 µM
[32]
  GI50: 3.7 µM
  TGI: 15.1 µM
[33]
  GI50: 11.3 µM
  TGI: 34.3 µM
[34]
  GI50: 19.2 µM
  TGI: > 100 µM
[35]
  GI50: 5.46 µM
  TGI: 23.4 µM
[36]
  GI50: 2.99 µM
  TGI: 53 µM
[37]
  GI50: 46.5 µM
  TGI: > 100 µM
[38]
  GI50: 8.28 µM
  TGI: 45.4 µM
[39]
  GI50: 17.6 µM
  TGI: > 100 µM
[40]
  GI50: 2.06 µM
  TGI: 6.94 µM
[41]
  GI50: 9.2 µM
  TGI: 38.8 µM
[42]
  GI50: 3.04 µM
  TGI: 13.3 µM
[43]
  GI50: 2.12 µM
  TGI: 5.25 µM
[44]
  GI50: 17.6 µM
  TGI: 34.4 µM
[45]
  GI50: 33.5 µM
  TGI: > 100 µM
[46]
  GI50: 4.05 µM
  TGI: 28 µM
[47]
  GI50: 15 µM
  TGI: 32 µM
[48]
  GI50: 9.67 µM
  TGI: 45.7 µM
[49]
  GI50: 13.9 µM
  TGI: 33.1 µM
[50]
  GI50: 1.63 µM
  TGI: 5.21 µM
[51]
  GI50: > 100 µM
  TGI: > 100 µM
[52]
  GI50: 18 µM
  TGI: > 100 µM
[53]
  GI50: 27.9 µM
  TGI: > 100 µM
[54]
  GI50: 6.89 µM
  TGI: 22.2 µM
[55]
  GI50: 3.83 µM
  TGI: 18.4 µM
[56]
  GI50: 48 µM
  TGI: > 100 µM
[57]
  GI50: 12 µM
  TGI: 28.8 µM
[58]
  GI50: 14.5 µM
  TGI: 43.4 µM
